Reference: US9982045B2, “Anti-CDH6 antibody drug conjugates” (Novartis AG, priority 2014, dated 2018)

Key:
[1] = test system: CDH6 expressing primary (patient derived) ovarian tumors; assay: Patient-derived primary ovarian tumor xenograft mouse model (Example 18); format: in vivo, nude mice; details: 5 mg/kg i.v. Q14D
Method: Mice were enrolled in the study 48 days post implant with a mean tumor volume of 178 mm^3. […] All groups were dosed at 5 mg/kg.

[2] = test system: CDH6 expressing cell lines compared to non-expressing cell lines; assay: In vitro cellular activity on panel of CDH6 expressing and non-expressing cell lines; details: OVCAR3 and OVCAR8-CDH6+ compared to OVCAR8; FIG. 12

NOV0712: anti-CDH6 human IgG1 from HuCAL PLATINUM phage display; binds CDH6 EC5; sequence in Table 5
Anti-tumor activity (tumor volume) [1]: no inhibitory effect upon tumor growth
Cellular activity (inhibition of proliferation) [2]: No cellular activity was observed
